In ChEMBL document CHEMBL1201862, “PubChem BioAssay data set” (2004):
Activity calls are given as the source filed them.

Assays:
[1] = inhibitors of intracellular T. cruzi replication, confirmation, NIH3T3 host cells, beta-gal luminescence (AID 2044); format: functional, cell-based;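 further: intracellular parasites grown in NIH/3T3 mouse fibroblasts as host cells; luminescent beta-galactosidase reporter signal from transgenic T. cruzi replicating inside host cells; inhibitors lower the luminescence signal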
[2] = biological target: 1-phosphatidylinositol 4,5-bisphosphate phosphodiesterase beta-3 (Homo sapiens, UniProt Q01970); assay: Fluorescence-based biochemical high throughput dose response assay to identify inhibitors of phospholipase C isozymes (PLC-B3).
[3] = biological target: T1, Replicative DNA helicase DnaB (Mycobacterium tuberculosis, UniProt P9WMR3); assay: DnaB intein splicing inhibitors, dose response, biochemical, cell-free fluorescence (AID 449749); format: functional
T1 sequence (P9WMR3 whole entry): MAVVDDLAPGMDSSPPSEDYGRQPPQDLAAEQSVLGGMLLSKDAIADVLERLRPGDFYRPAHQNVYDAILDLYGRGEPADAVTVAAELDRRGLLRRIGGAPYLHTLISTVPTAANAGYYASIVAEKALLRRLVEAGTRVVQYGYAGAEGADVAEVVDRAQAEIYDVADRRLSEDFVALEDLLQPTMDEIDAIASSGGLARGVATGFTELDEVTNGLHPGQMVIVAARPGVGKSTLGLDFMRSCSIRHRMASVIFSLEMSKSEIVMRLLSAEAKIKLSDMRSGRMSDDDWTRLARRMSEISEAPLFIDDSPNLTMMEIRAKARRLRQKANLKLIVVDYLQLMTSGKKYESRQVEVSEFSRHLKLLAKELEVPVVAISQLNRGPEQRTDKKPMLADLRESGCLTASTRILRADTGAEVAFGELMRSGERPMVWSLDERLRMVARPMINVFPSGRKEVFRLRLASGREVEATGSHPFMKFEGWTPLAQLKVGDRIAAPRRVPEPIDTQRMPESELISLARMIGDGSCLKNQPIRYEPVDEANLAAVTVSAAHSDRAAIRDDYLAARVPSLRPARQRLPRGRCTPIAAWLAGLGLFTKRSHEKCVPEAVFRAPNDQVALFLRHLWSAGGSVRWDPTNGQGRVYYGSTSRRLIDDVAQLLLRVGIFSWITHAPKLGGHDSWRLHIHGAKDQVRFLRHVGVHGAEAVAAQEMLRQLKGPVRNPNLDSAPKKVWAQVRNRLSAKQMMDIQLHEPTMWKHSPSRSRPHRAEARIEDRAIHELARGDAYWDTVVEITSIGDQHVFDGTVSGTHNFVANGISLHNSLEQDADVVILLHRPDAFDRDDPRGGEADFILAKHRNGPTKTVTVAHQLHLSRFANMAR

[4] = biological target: Heat shock protein HSP 90-alpha (Homo sapiens, UniProt P07900); assay: Luminescence-based dose response biochemical high throughput screening assay for inhibitors of the Heat Shock Protein 90 (HSP90). [Related pubchem assays: 1831 (Summary AID.), 1846 (Confirmation screen.), 1789 (Primary screen.)]
[5] = biological target: T2, Dual specificity protein phosphatase 3 (Homo sapiens, UniProt P51452); assay: VHR1 phosphatase inhibitors, biochemical (AID 1878)
[6] = biological target: T2, Dual specificity protein phosphatase 3; assay: SAR VHR1 Fluorescent Assay for In Vitro dose response studies. [Related pubchem assays (depositor defined):AID1654, AID1661, AID1878, AID1992, AID2004, AID2070, AID2085]; format: functional
[7] = biological target: T3, Small ubiquitin-related modifier 2 (Homo sapiens, UniProt P61956); assay: SUMO2–SIM peptide binding inhibitors, dose response, selectivity assay for SUMO1 interaction inhibitor project, biochemical, fluorescence polarization, uHTS hits (AID 624385); format: functional; details: read-out: IC50_Mean
[8] = system: HeLa; assay: HeLa cell cytotoxicity, dose response, cytotoxicity control, 24 h, cherry-picked samples (AID 504726); format: functional, cell-based; details: Homo sapiens;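 further: potency for cytotoxicity as loss of luminescence signal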
[9] = biological target: T3, Small ubiquitin-related modifier 2; assay: inhibitors of SUMO2 protein-protein interaction, dose response, selectivity assay for SUMO1 interaction inhibitor project, biochemical, FRET, human SUMO2, uHTS hits (AID 624384); format: functional; details: read-out: IC50_Mean
[10] = Luminescence Cell-Based Dose Response HTS to Identify Inhibitors of 5'UTR Stem-Loop Driven Prion Protein mRNA Translation in H4 Neuroglioblastoma Cells. [Related pubchem assays: 1827 (Project Summary), 1813 (Primary HTS)]; format: functional
[11] = biological target: T4, Sentrin-specific protease 8 (Homo sapiens, UniProt Q96LD8); format: functional
T4 sequence (Q96LD8 whole entry): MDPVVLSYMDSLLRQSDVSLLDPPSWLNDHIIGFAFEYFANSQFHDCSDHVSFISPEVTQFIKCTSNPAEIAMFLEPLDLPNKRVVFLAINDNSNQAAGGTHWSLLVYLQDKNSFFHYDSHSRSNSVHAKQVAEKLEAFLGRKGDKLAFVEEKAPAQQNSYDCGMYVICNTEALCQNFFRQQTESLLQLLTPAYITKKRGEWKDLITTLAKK

[12] = biological target: Ras and Rab interactor 1/Tyrosine-protein kinase ABL1 (Homo sapiens, UniProt P00519+Q13671); format: functional;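 further: biochemical TR-FRET dose-response test measuring inhibition of binding between Rin1 and Abl proteins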
[13] = biological target: T4, Sentrin-specific protease 8; format: functional; remark: listed apart in the source
[14] = biological target: T4, Sentrin-specific protease 8; format: functional; remark: listed apart in the source
[15] = biological target: T5, Tyrosine-protein phosphatase non-receptor type 22 (Homo sapiens, UniProt Q9Y2R2); format: functional;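 further: confirmatory dose-response retest of primary uHTS hits for inhibition of LYP phosphatase, measured by a fluorescence intensity read-out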
T5 sequence (Q9Y2R2 whole entry): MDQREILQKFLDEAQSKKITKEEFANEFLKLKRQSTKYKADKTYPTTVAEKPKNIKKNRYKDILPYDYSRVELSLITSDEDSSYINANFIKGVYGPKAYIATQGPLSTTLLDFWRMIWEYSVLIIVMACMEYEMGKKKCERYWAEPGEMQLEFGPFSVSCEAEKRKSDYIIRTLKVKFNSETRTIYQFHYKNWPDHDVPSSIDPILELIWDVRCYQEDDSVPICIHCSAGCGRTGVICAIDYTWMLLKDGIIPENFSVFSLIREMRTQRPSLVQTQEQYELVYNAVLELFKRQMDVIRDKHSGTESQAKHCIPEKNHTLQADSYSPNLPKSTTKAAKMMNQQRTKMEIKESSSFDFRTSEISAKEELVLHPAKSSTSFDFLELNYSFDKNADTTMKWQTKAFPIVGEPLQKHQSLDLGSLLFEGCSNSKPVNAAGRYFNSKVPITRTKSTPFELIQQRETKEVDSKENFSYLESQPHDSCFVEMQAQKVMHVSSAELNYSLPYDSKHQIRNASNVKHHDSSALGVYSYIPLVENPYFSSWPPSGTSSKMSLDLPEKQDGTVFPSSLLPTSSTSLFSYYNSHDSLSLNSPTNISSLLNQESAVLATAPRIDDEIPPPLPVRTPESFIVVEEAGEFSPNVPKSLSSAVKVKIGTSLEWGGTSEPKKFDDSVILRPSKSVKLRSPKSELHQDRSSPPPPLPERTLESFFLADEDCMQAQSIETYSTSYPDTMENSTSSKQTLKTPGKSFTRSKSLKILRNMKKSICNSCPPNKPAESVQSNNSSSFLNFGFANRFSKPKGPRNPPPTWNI

T2 sequence (P51452 whole entry): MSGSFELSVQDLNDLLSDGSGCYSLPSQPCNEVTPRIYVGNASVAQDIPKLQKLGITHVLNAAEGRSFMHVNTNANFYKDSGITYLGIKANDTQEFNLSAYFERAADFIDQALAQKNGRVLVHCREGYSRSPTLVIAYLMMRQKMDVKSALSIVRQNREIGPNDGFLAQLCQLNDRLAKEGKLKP
T3 sequence (P61956 whole entry): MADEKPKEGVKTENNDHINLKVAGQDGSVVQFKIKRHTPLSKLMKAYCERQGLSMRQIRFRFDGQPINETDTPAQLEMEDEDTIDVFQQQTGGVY
Chain of Ras and Rab interactor 1/Tyrosine-protein kinase ABL1 (P00519 whole entry): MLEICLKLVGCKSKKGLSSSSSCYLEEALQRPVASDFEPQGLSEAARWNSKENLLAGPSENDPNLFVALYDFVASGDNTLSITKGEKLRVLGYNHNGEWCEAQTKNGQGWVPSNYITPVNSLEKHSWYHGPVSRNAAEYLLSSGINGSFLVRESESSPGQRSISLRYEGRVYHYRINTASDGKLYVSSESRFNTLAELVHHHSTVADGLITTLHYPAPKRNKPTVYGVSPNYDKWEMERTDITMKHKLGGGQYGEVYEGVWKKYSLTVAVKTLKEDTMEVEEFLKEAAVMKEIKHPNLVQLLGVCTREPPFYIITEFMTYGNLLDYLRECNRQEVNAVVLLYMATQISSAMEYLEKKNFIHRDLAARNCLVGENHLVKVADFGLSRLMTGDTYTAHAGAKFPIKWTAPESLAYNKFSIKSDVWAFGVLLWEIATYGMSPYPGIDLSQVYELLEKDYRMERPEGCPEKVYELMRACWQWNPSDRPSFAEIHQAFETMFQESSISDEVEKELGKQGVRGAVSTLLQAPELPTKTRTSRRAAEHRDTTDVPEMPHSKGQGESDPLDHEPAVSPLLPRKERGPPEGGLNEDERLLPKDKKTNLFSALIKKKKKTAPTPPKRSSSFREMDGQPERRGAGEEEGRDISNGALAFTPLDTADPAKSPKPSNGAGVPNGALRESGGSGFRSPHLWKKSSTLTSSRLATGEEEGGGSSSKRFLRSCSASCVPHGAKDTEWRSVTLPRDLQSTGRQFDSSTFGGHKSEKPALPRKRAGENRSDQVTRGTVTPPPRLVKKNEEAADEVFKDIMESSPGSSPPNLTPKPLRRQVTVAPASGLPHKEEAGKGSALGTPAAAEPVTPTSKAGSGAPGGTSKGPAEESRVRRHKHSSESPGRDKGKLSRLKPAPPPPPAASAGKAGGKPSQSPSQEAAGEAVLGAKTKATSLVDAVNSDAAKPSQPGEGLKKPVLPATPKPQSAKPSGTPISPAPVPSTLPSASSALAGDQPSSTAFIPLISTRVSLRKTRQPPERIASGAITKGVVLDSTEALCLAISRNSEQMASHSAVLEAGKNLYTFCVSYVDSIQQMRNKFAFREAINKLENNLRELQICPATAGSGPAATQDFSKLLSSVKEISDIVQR
Chain of Ras and Rab interactor 1/Tyrosine-protein kinase ABL1 (Q13671 whole entry): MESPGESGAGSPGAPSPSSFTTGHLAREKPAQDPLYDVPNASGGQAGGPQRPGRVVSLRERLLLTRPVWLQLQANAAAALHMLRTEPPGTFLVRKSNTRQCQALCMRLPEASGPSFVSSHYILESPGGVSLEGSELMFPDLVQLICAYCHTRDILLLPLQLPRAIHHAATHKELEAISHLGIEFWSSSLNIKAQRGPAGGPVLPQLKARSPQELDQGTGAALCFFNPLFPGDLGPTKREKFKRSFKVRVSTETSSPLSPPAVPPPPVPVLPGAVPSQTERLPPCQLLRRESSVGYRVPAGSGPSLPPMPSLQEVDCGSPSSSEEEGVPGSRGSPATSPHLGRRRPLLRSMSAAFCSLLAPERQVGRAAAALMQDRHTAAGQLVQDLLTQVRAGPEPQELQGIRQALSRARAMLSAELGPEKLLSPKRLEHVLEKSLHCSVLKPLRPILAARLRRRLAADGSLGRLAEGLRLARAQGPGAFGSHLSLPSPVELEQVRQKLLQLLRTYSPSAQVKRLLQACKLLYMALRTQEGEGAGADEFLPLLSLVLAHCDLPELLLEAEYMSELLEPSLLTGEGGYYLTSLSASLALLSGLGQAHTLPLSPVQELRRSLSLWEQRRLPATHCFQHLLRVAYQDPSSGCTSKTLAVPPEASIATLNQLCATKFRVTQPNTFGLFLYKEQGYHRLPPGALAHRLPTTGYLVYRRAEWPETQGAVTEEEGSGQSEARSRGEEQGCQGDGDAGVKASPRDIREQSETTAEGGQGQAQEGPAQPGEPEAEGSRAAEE
Chain of 1-phosphatidylinositol 4,5-bisphosphate phosphodiesterase beta-3 (Q01970 whole entry): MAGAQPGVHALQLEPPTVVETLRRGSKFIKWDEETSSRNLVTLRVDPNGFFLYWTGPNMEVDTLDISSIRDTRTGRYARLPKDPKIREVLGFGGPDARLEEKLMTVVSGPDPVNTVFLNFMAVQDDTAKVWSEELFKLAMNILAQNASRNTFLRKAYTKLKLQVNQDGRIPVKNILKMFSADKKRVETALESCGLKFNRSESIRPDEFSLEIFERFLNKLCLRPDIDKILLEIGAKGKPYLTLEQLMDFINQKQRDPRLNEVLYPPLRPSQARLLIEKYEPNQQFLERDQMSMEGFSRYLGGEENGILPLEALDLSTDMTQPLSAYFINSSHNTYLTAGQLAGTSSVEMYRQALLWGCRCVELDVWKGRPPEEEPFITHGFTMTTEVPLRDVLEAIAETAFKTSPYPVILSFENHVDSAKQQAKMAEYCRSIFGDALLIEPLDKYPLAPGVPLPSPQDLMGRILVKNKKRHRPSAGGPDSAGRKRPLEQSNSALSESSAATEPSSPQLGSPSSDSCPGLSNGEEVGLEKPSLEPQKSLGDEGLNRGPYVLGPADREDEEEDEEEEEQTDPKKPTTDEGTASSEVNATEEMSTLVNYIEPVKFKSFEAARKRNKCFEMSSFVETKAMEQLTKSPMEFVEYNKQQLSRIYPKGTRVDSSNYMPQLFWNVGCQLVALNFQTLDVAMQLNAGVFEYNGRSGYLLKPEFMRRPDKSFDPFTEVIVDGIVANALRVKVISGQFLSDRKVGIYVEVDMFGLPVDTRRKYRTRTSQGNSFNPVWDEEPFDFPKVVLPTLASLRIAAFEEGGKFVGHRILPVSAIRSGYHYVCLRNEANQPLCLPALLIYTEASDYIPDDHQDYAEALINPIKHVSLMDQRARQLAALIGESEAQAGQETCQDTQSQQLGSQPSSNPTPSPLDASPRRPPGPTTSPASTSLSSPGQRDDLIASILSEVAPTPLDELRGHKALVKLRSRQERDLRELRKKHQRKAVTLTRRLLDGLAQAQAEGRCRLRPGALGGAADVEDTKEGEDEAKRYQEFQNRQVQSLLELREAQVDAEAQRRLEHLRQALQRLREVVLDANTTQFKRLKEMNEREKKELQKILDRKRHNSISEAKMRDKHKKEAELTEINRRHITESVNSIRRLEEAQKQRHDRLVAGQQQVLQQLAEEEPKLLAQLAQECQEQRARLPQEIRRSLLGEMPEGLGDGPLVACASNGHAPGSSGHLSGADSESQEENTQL

COC(=O)c1cc(C)nc2c1C(=O)C(=O)C=C2N1CCOCC1
EC50 [1]: 2.34 µM (active) | IC50 [2]: > 123 µM (inactive) | AC50 [3]: 1.36 µM (active) | IC50 [4]: 3.21 µM (active)

NS(=O)(=O)c1cc(C(=O)NC2CCSc3ccccc32)ccc1Cl (stereo not given)
IC50 [5]: < 1.23 µM (inactive) | IC50 [6]: 0.065 µM (active) | IC50 [7]: 6.65 µM (active) | AC50 [8]: > 350 µM (inactive) | IC50 [9]: 1.75 µM (active)

O=C1c2ccccc2C(=O)c2[nH]c(O)nc21
EC50 [10]: 8.19 µM (active)

CCOC(=O)C1=C(C)OC2(O)c3ccccc3C(=O)C12O (stereo not given)
IC50 [11]: 0.428 µM (active) | IC50 [12]: 11.1 µM (inactive) | IC50 [13]: 5.38 µM (active) | IC50 [14]: 0.284 µM (active)

N#Cc1c(N2CCCC2)nc(N)c2c(N)nc(N3CCCC3)cc12
IC50 [15]: > 79.4 µM (inactive)
